Source: ChEMBL document CHEMBL3045636, “Synthesis, characterization, in vitro anticancer activity, and docking of Schiff bases of 4-amino-1,2-naphthoquinone” (Med Chem Res, 2013)
Active and inactive are the calls of the source. The rule behind the calls is not given here.

Experiments:
Format in all cases: functional, cell-based
[1] = test system: MG-63; assay: Cytotoxicity against Homo sapiens (human) MG63 cells assessed as reduction of cell survival after 48 hr by MTT assay; conditions: MG-63, 48 h
[2] = test system: MCF7; assay: Cytotoxicity against Homo sapiens (human) MCF7 cells assessed as reduction of cell survival after 48 hr by MTT assay; conditions: MCF7, 48 h
[3] = test system: HepG2; assay: Cytotoxicity against Homo sapiens (human) HepG2 cells assessed as reduction of cell survival after 48 hr by MTT assay; conditions: HepG2, 48 h
[4] = test system: MG-63; assay: Cytotoxicity against Homo sapiens (human) MG63 cells assessed as morphological changes at 10 uM after 48 hr by phase contrast microscopic analysis relative to untreated control
[5] = test system: HepG2; assay: Cytotoxicity against Homo sapiens (human) HepG2 cells assessed as morphological changes at 10 uM after 48 hr by phase contrast microscopic analysis relative to untreated control
[6] = test system: MCF7; assay: Cytotoxicity against Homo sapiens (human) MCF7 cells assessed as morphological changes at 10 uM after 48 hr by phase contrast microscopic analysis relative to untreated control

| Compound | IC50 [1] [µM] | IC50 [2] [µM] | IC50 [3] [µM] | Activity [4] | Activity [5] | Activity [6] |
| --- | --- | --- | --- | --- | --- | --- |
| O=C1C=C(/N=C\C=C\c2ccccc2)c2ccccc2C1=O | 14.8 | 12.9 | 10.6 | – | – | – |
| O=C1C=C(/N=C\c2ccc(Cl)cc2Cl)c2ccccc2C1=O | 24.3 | 14.7 | 15.7 | – | – | – |
| COc1ccc(/C=N\C2=CC(=O)C(=O)c3ccccc32)cc1 | 12.7 | 11.2 | 9.03 | – | – | – |
| COc1cc(/C=N\C2=CC(=O)C(=O)c3ccccc32)ccc1O | 9.98 | 8.24 | 6.37 | – | – | – |
| O=C1C=C(/N=C\c2ccccc2)c2ccccc2C1=O | 16.2 | 13.8 | 11.5 | – | – | – |
| COc1cccc2c1C(=O)c1c(O)c3c(c(O)c1C2=O)C[C@@](O)(C(=O)CO)C[C@@H]3O[C@H]1C[C@H](N)[C@H](O)[C@H](C)O1 [DOXORUBICIN] | 3.17 | 2.67 | 1.69 | – | – | – |
| O=C1C=C(/N=C\c2ccc([N+](=O)[O-])cc2)c2ccccc2C1=O | 25 | 14.7 | 15.6 | – | – | – |
| Cc1ccc(/C=N\C2=CC(=O)C(=O)c3ccccc32)cc1 | 15.1 | 12.6 | 10.4 | – | – | – |
| CN(C)c1ccc(/C=N\C2=CC(=O)C(=O)c3ccccc32)cc1 | 12.9 | 10.6 | 7.72 | – | – | – |
| O=C1C=C(/N=C\c2c[nH]c3ccccc23)c2ccccc2C1=O | 13.8 | 11.3 | 10.1 | – | – | – |
| COc1ccc(/C=N\C2=CC(=O)C(=O)c3ccccc32)cc1OC | 13.3 | 10.9 | 9.15 | – | – | – |
| O=C1C=C(/N=C\c2cccc(Br)c2)c2ccccc2C1=O | 17.3 | 14.6 | 12.2 | – | – | – |
| O=C1C=C(N=C2CCCC2)c2ccccc2C1=O | 11.9 | 9.64 | 7.77 | – | – | – |
| O=C1C=C(/N=C\c2ccccc2Cl)c2ccccc2C1=O | 17.1 | 14.3 | 12.1 | – | – | – |
| O=C1C=C(N=C2CCCCC2)c2ccccc2C1=O | 11.5 | 9.3 | 7.37 | – | – | – |
| COc1cc(/C=N\C2=CC(=O)C(=O)c3ccccc32)cc(OC)c1OC | 9.69 | 7.65 | 5.91 | Active | Active | Active |
| O=C1C=C(/N=C\c2ccccc2O)c2ccccc2C1=O | 16.1 | 13.2 | 11 | – | – | – |
| O=C1C=C(/N=C\c2ccc(O)cc2)c2ccccc2C1=O | 13.6 | 11.1 | 8.92 | – | – | – |
| NC1=CC(=O)C(=O)c2ccccc21 [4-AMINO-[1,2]NAPHTHOQUINONE] | 24.6 | 14.8 | 15.7 | – | – | – |
| O=C1C=C(/N=C\c2ccccc2[N+](=O)[O-])c2ccccc2C1=O | 17 | 14.4 | 11.8 | – | – | – |
| O=C1C=CC(=O)c2ccccc21 [NAPHTHOQUINONE] | > 25 | 16.9 | 15.9 | – | – | – |
